Source: patent US20230221325A1, “SOLUBLE CD28 LEVELS AFTER IMMUNOTHERAPY” (BIOND BIOLOGICS LTD., priority 2019, published 2023)

Tests used:
[1] = tested on: CMV-stimulated PBMC; assay: CMV activation of PBMCs for the generation of soluble CD28 (ELISA); format: cell-based, human; conditions: 7 days CMV stimulation, with anti-PD-1 (Keytruda) 5 μg/mL, inhibitor 1 μM
[2] = tested on: SEB stimulated human PBMC; assay: SEB activation of PBMCs for the generation of soluble CD28 (ELISA); format: cell-based
[3] = tested on: melanoma patients; assay: Survival of melanoma patients on anti-PD1 therapy by sCD28 level before therapy; format: in vivo, human
Description: To further understand the impact of sCD28 levels on cancer progression during immunotherapy, more than 100 serum samples from melanoma patients prior to initiation of anti-PD1 therapy (Nivolumab, NCT01176461) were tested for sCD28 levels by ELISA. Survival was monitored throughout therapy and a survival function was plotted comparing subjects with high and low levels of sCD28 before therapy (FIG. 1).

CNC(=O)[C@@H](NC(=O)[C@H](CCCc1ccccc1)[C@H](C)N(O)C=O)C(C)(C)C [GI254023X]
sCD28 increase caused by anti-PD-1 [1]: abrogated the sCD28 increase caused by immunotherapy

Keytruda: Anti-PD-1 (Keytruda, Merck)
sCD28 in the media (increase induced by SEB) ([2]; PBMCs from two healthy donors, SEB for 8 days, anti-PD-1 5 μg/mL vs isotype control): enhanced | sCD28 increase caused by the immunotherapy, significance ([2]; days 6-8, vs isotype control): statistically significant

Nivolumab: anti-PD1 therapy (NCT01176461)
median survival ([3]; subjects with high levels of sCD28 before therapy): 514 days | median survival ([3]; subjects with low levels of sCD28 (below 2 ng/mL) before therapy): 659 days
